Experimental data published in ChEMBL document CHEMBL3885861, “Open TG-GATES”.

Organism: Rattus norvegicus
Experiment: Open TG-GATES - Regimen: Single
Assay type: toxicity, organism-based, Sprague-Dawley
Design: regimen Single, gender Male, age 6 weeks
Settings: in vivo, po, 100 mg/kg, route gavage, dose level Low; for APTT / Bas / Eos / Fbg / Hb / Ht / Lym / MCH / MCHC / MCV / Mono / Neu / PT / Plat / RBC / Ret / WBC: tissue Blood; for KIDNEY_L / KIDNEY_R / KIDNEY_TOTAL: tissue Kidney; for LIVER: tissue Liver; for A/G / ALP / ALT / AST / BUN / CRE / Ca / Cl / DBIL / GLC / IP / K / LDH / Na / PL / RALB / TBIL / TC / TG / TP / gamma-GTP: tissue Plasma

SMILES: Cc1nnc2n1-c1ccc(Cl)cc1C(c1ccccc1Cl)=NC2 [TRIAZOLAM]
- TERMINAL_BW (3 h): 192 g
- APTT (3 h): 17.6 s
- Bas (3 h): 0%
- Eos (3 h): 1%
- Fbg (3 h): 279.8 mg/dL
- Hb (3 h): 13.9 g/dL
- Ht (3 h): 42.1%
- Lym (3 h): 75%
- MCH (3 h): 21 pg
- MCHC (3 h): 33%
- MCV (3 h): 63.8 fL
- Mono (3 h): 3%
- Neu (3 h): 20.4%
- PT (3 h): 13.5 s
- Plat (3 h): 121.2 x10_4/uL
- RBC (3 h): 661.2 x10_4/ul
- Ret (3 h): 9.1%
- WBC (3 h): 73.1 x10_2/uL
- KIDNEY_L (3 h): 0.9 g
- KIDNEY_R (3 h): 0.8 g
- KIDNEY_TOTAL (3 h): 1.7 g
- LIVER (3 h): 8 g
- A/G (3 h): 0.9
- ALP (3 h): 1479.6 IU/L
- ALT (3 h): 40.8 IU/L
- AST (3 h): 75.4 IU/L
- BUN (3 h): 9.4 mg/dL
- CRE (3 h): 0.2 mg/dL
- Ca (3 h): 11 mg/dL
- Cl (3 h): 104.2 meq/L
- DBIL (3 h): 0.008 mg/dL
- GLC (3 h): 176.4 mg/dL
- IP (3 h): 10.2 mg/dL
- K (3 h): 4.3 meq/L
- LDH (3 h): 80.4 IU/L
- Na (3 h): 141.4 meq/L
- PL (3 h): 144.4 mg/dL
- RALB (3 h): 2.4 g/dL
- TBIL (3 h): 0.062 mg/dL
- TC (3 h): 75.8 mg/dL
- TG (3 h): 40.6 mg/dL
- TP (3 h): 5.1 g/dL
- gamma-GTP (3 h): 1.4 IU/L
- TERMINAL_BW (6 h): 189.9 g
- APTT (6 h): 19.9 s
- Bas (6 h): 0%
- Eos (6 h): 0.8%
- Fbg (6 h): 284 mg/dL
- Hb (6 h): 13.9 g/dL
- Ht (6 h): 42.5%
- Lym (6 h): 76.8%
- MCH (6 h): 21.1 pg
- MCHC (6 h): 32.6%
- MCV (6 h): 64.7 fL
- Mono (6 h): 2.2%
- Neu (6 h): 19.6%
- PT (6 h): 13.4 s
- Plat (6 h): 121.9 x10_4/uL
- RBC (6 h): 657.4 x10_4/ul
- Ret (6 h): 9.3%
- WBC (6 h): 73 x10_2/uL
- KIDNEY_L (6 h): 0.9 g
- KIDNEY_R (6 h): 0.9 g
- KIDNEY_TOTAL (6 h): 1.7 g
- LIVER (6 h): 8.1 g
- A/G (6 h): 0.9
- ALP (6 h): 1351.6 IU/L
- ALT (6 h): 40.4 IU/L
- AST (6 h): 69.8 IU/L
- BUN (6 h): 7.6 mg/dL
- CRE (6 h): 0.1 mg/dL
- Ca (6 h): 10.9 mg/dL
- Cl (6 h): 104.4 meq/L
- DBIL (6 h): 0.008 mg/dL
- GLC (6 h): 186.2 mg/dL
- IP (6 h): 10.5 mg/dL
- K (6 h): 4.2 meq/L
- LDH (6 h): 70 IU/L
- Na (6 h): 140.8 meq/L
- PL (6 h): 142.8 mg/dL
- RALB (6 h): 2.5 g/dL
- TBIL (6 h): 0.062 mg/dL
- TC (6 h): 78.6 mg/dL
- TG (6 h): 34 mg/dL
- TP (6 h): 5.1 g/dL
- gamma-GTP (6 h): 1.2 IU/L
- TERMINAL_BW (9 h): 190.1 g
- APTT (9 h): 18.1 s
- Bas (9 h): 0%
- Eos (9 h): 1.6%
- Fbg (9 h): 285.4 mg/dL
- Hb (9 h): 13.4 g/dL
- Ht (9 h): 41%
- Lym (9 h): 73.8%
- MCH (9 h): 20.6 pg
- MCHC (9 h): 32.7%
- MCV (9 h): 63 fL
- Mono (9 h): 2.2%
- Neu (9 h): 21.6%
- PT (9 h): 13.7 s
- Plat (9 h): 122.5 x10_4/uL
- RBC (9 h): 651.2 x10_4/ul
- Ret (9 h): 9.4%
- WBC (9 h): 68 x10_2/uL
- KIDNEY_L (9 h): 0.9 g
- KIDNEY_R (9 h): 0.9 g
- KIDNEY_TOTAL (9 h): 1.7 g
- LIVER (9 h): 7.5 g
- A/G (9 h): 0.9
- ALP (9 h): 1617.4 IU/L
- ALT (9 h): 35.8 IU/L
- AST (9 h): 65.4 IU/L
- BUN (9 h): 8.4 mg/dL
- CRE (9 h): 0.1 mg/dL
- Ca (9 h): 10.8 mg/dL
- Cl (9 h): 105 meq/L
- DBIL (9 h): 0.014 mg/dL
- GLC (9 h): 181.8 mg/dL
- IP (9 h): 10.6 mg/dL
- K (9 h): 4.5 meq/L
- LDH (9 h): 68.8 IU/L
- Na (9 h): 141 meq/L
- PL (9 h): 150.6 mg/dL
- RALB (9 h): 2.4 g/dL
- TBIL (9 h): 0.062 mg/dL
- TC (9 h): 75.4 mg/dL
- TG (9 h): 65 mg/dL
- TP (9 h): 5.2 g/dL
- gamma-GTP (9 h): 1 IU/L
- TERMINAL_BW (24 h): 208.4 g
- APTT (24 h): 20.1 s
- Bas (24 h): 0%
- Eos (24 h): 1%
- Fbg (24 h): 279 mg/dL
- Hb (24 h): 13.3 g/dL
- Ht (24 h): 40.5%
- Lym (24 h): 69%
- MCH (24 h): 20.7 pg
- MCHC (24 h): 32.8%
- MCV (24 h): 63.2 fL
- Mono (24 h): 3.2%
- Neu (24 h): 26.2%
- PT (24 h): 13.4 s
- Plat (24 h): 123.8 x10_4/uL
- RBC (24 h): 640.8 x10_4/ul
- Ret (24 h): 8.2%
- WBC (24 h): 109.3 x10_2/uL
- KIDNEY_L (24 h): 0.9 g
- KIDNEY_R (24 h): 0.9 g
- KIDNEY_TOTAL (24 h): 1.8 g
- LIVER (24 h): 9.2 g
- A/G (24 h): 0.9
- ALP (24 h): 1675 IU/L
- ALT (24 h): 41.6 IU/L
- AST (24 h): 68.2 IU/L
- BUN (24 h): 12 mg/dL
- CRE (24 h): 0.2 mg/dL
- Ca (24 h): 11.3 mg/dL
- Cl (24 h): 104.2 meq/L
- DBIL (24 h): 0.01 mg/dL
- GLC (24 h): 183.6 mg/dL
- IP (24 h): 9.4 mg/dL
- K (24 h): 4.1 meq/L
- LDH (24 h): 91 IU/L
- Na (24 h): 141.2 meq/L
- PL (24 h): 158.2 mg/dL
- RALB (24 h): 2.5 g/dL
- TBIL (24 h): 0.06 mg/dL
- TC (24 h): 82.2 mg/dL
- TG (24 h): 83.8 mg/dL
- TP (24 h): 5.4 g/dL
- gamma-GTP (24 h): 1.2 IU/L
